From US20230355597A1, “COMPOUNDS, COMPOSITIONS, AND METHODS FOR THE TREATMENT AND PREVENTION OF AVIAN PATHOGENIC E. COLI (APEC)” (OHIO STATE INNOVATION FOUNDATION, priority 2018, published 2023)

Columns and labels:
[1] = system: AI-2 activity of APEC O78; test: AI-2 bioluminescence indicator assay (V. harveyi BB170); conditions: APEC O78, 100 µM
[2] = system: AI-2 activity of APEC O15; test: as above; conditions: APEC O15, 100 µM
[3] = system: Rif^r APEC O78; test: Wax moth (Galleria mellonella) larva infection model (AI-2 inhibitors); conditions: 72 h post treatment
[4] = system: Rif^r APEC O78; test: In vivo screening of quorum sensing inhibitors in APEC infected broiler chickens; conditions: for reduction in chicken mortality: DMSO control mortality normalized to 100%; for Mortality rate (%): oral gavage once a day, day 4 to day 8, DMSO control 66.7%; for Reduction in APEC lesions severity, Air-sacs (%) / Reduction in APEC lesions severity, Heart (%) / Reduction in APEC lesions severity, Liver (%) / Reduction in APEC lesions severity, Lung (%): vs DMSO treated control
[5] = system: AI-2 activity of APEC O35; test: AI-2 bioluminescence indicator assay (V. harveyi BB170); conditions: APEC O35, 100 µM
[6] = system: APEC O78 biofilm formation; test: Biofilm assay (crystal violet); assay type: cell-based, avian pathogenic Escherichia coli (APEC); conditions: 100 µM, 48 h
Experimental: Biofilm assay. […] Briefly, APEC O78 was grown in LB broth in the presence of 100 µM of each compound in a 96-well plate at 37° C. for 10 h. The culture was then diluted 1:100 in fresh LB broth. The biofilm assay was performed in 96-well plate contain 150 µL of the diluted culture and 100 µM of each compound. The plate was then incubated aerobically without shaking at 37° C. for 48 h, washed twice with PBS to remove the non-adherent cells and stained with 200 µL of 0.1% CV in water at room temperature for 10 min. The plate was washed with PBS and biofilm was quantified by measuring the absorbance at 550 nm after solubilizing the CV in 200 µL of 30% acetic acid in water for 15 min.

[7] = system: AI-2 activity of APEC O8; test: AI-2 bioluminescence indicator assay (V. harveyi BB170); conditions: APEC O8, 100 µM
[8] = system: QS and virulence associated genes of APEC O78; test: qRT-PCR of QS-regulated and virulence factors genes; assay type: cell-based, avian pathogenic Escherichia coli (APEC); conditions: 100 µM, 10 h
[9] = system: AI-2 activity of APEC O115; test: AI-2 bioluminescence indicator assay (V. harveyi BB170); conditions: APEC O115, 100 µM
[10] = system: AI-2 activity of APEC O18; test: as above; conditions: APEC O18, 100 µM
[11] = system: AI-2 activity of APEC O2; test: as above; conditions: APEC O2, 100 µM
[12] = system: AI-2 activity of APEC O109; test: as above; conditions: APEC O109, 100 µM
[13] = system: APEC O1 in HD-11 cells; test: Intracellular survival assay (AI-2 inhibitors); conditions: O1, HD-11, 100 µM, 6 h
[14] = system: AI-2 activity of APEC O1; test: AI-2 bioluminescence indicator assay (V. harveyi BB170); conditions: APEC O1, 100 µM
[15] = system: APEC O2 in THP-1 cells; test: Intracellular survival assay (AI-2 inhibitors); conditions: O2, THP-1, 100 µM, 6 h
[16] = system: APEC O78 in HD-11 cells; test: Intracellular survival assay (AI-2 inhibitors); assay type: cell-based, avian pathogenic Escherichia coli (APEC); conditions: O78, HD-11, 100 µM, 6 h
Source text: Intracellular survival assay.

[17] = system: Caco-2 cells; test: LDH assay of AI-2 inhibitors; conditions: Caco-2, 100 µM, 24 h
[18] = system: APEC O78 in THP-1 cells; test: Intracellular survival assay (AI-2 inhibitors); conditions: O78, THP-1, 100 µM, 6 h, vs DMSO
[19] = system: APEC O2 in HD-11 cells; test: Intracellular survival assay (AI-2 inhibitors); conditions: O2, HD-11, 100 µM, 6 h

COCCN1CCC(CN(Cc2ccncc2)Cc2ccccc2Cl)CC1 [C1, {2-chlorobenzyl)([1(2-methoxyethyly-4-piperidinyl]methyl)4-pyridinyimethyl)amine]
Inhibition % of AI-2 activity [1]: 84%
Inhibition % of AI-2 activity [2]: 13%
larval death [3]: no larval death
reduction in chicken mortality [4]: 25%
Mortality rate (%) [4]: 50%
Reduction in APEC lesions severity, Air-sacs (%) [4]: 26.7%
Reduction in APEC lesions severity, Heart (%) [4]: 0%
Reduction in APEC lesions severity, Liver (%) [4]: 0%
Reduction in APEC lesions severity, Lung (%) [4]: 66.7%
Inhibition % of AI-2 activity [5]: 48%
induction of biofilm formation of APEC O78 [6]: up to 100%
Inhibition % of AI-2 activity [7]: 20%
expression of murD [8]: down-regulated
Inhibition % of AI-2 activity [9]: 64%
Inhibition % of AI-2 activity [10]: 37%
Inhibition % of AI-2 activity [11]: 94%
Inhibition % of AI-2 activity [12]: 65%

NC(=O)c1ccccc1Nc1cccc(C(F)(F)F)c1 [C3, 2-[[3-(trifuoromethyl)phenyl]amino]benzamide]
Inhibition % of AI-2 activity [1]: 78%
Inhibition % of AI-2 activity [2]: 0%
Inhibition % of AI-2 activity [5]: 37%
Inhibition % of AI-2 activity [7]: 39%
expression of fpr [8]: down-regulated
Inhibition % of AI-2 activity [9]: 35%
Inhibition % of AI-2 activity [10]: 8%
clearance of intracellular APEC [13]: 100%
reduction of intracellular survival ([13]; vs DMSO): 4 logs
Inhibition % of AI-2 activity [11]: 54%
Inhibition % of AI-2 activity [12]: 0%
Inhibition % of AI-2 activity [14]: 65%

OCCC1CN(C2CCN(c3ccccc3)CC2)CCN1CCCc1ccccc1 (stereo not drawn) [C10]
Inhibition % of AI-2 activity [1]: 84%
Inhibition % of AI-2 activity [2]: 22%
clearance of intracellular APEC [15]: 100%
reduction of intracellular survival ([15]; vs DMSO): 4 logs
reduction in chicken mortality [4]: 75%
average lesion score reduction ([4]; liver, heart, lung and airsac, vs DMSO): 1.5-2.3
reduction of bacterial load in internal organs ([4]; liver, lung, heart, and kidney, vs DMSO control, 'up to'): 3.4-4.3 log CFU/g
Mortality rate (%) [4]: 16.6%
Reduction in APEC lesions severity, Air-sacs (%) [4]: 88.9%
Reduction in APEC lesions severity, Heart (%) [4]: 83.3%
Reduction in APEC lesions severity, Liver (%) [4]: 100%
Reduction in APEC lesions severity, Lung (%) [4]: 100%
Inhibition % of AI-2 activity [5]: 47%
clearance of intracellular APEC [16]: 100%
reduction of intracellular survival ([16]; vs DMSO): 4 logs
toxicity (LDH) [17]: 27%
Inhibition % of AI-2 activity [7]: 0%
expression of fliP [8]: down-regulated
Inhibition % of AI-2 activity [10]: 35%
Inhibition % of AI-2 activity [11]: 89%
reduction of intracellular survival [18]: up to 0.7 logs
Inhibition % of AI-2 activity [12]: 57%
Inhibition % of AI-2 activity [14]: 64%
clearance of intracellular APEC [19]: 100%
reduction of intracellular survival ([19]; vs DMSO): 3.3 logs
